Test results as given in patent US10745395B2, “Compounds for their use as drugs for the treatment and/or the prevention of infection(s) caused by biofilm-forming bacteria” (CENTRE NATIONAL DE LA RECHERCHE SCIENTIFIQUE, priority 2014, dated 2020).

Columns and labels:
Assay in all cases: Antibiotic susceptibility test, disk diffusion (EUCAST)
Type in all cases: cell-based, Pseudomonas aeruginosa
Parameters in all cases: key: R means resistant to the antibiotic; S means sensitive to the antibiotic
Details in all cases: disk load given per antibiotic
[1] = test system: P. aeruginosa strain PAR 5
Description: (§1) All tests were performed on Pseudomonas aeruginosa strains coded: PAR 5, PAR 20, PAR 50, isolated from suppurated wounds of three male patients with chronic diabetic foot infections.
(§2) Drug resistance of the P. aeruginosa strains were tested using the disk diffusion method. Interpretation of the drug resistance of the Pseudomonas aeruginosa strains was done in accordance with the EUCAST standards (see the reference below for more information): http://www.eucast.org/fileadmin/src/media/PDFs/EUCAST_files/Breakpoint tables/Breakpoint_table_v_3.1.pdf.
(§3) To determine the drug resistance of the strains, the following antibiotics were used: amikacin, ciprofloxacin, gentamicin, piperacillin, tobramycin, ceftazidime (Oxoid, Basingstoke, UK). R means resistant to the antibiotic and S means sensitive to the antibiotic.

[2] = test system: P. aeruginosa strain PAR 50
Description: as §1, §2, §3

[3] = test system: P. aeruginosa strain PAR 20
Description: as §1, §2, §3

Compound	Antibiotic susceptibility (according to EUCAST) [1]	Antibiotic susceptibility (according to EUCAST) [2]	Antibiotic susceptibility (according to EUCAST) [3]
NCC[C@H](O)C(=O)N[C@@H]1C[C@H](N)[C@@H](O[C@H]2O[C@H](CN)[C@@H](O)[C@H](O)[C@H]2O)[C@H](O)[C@H]1O[C@H]1O[C@H](CO)[C@@H](O)[C@H](N)[C@H]1O [Amikacin]	S	R	S
CC(C)(O/N=C(\C(=O)N[C@@H]1C(=O)N2C(C(=O)[O-])=C(C[n+]3ccccc3)CS[C@H]12)c1csc(N)n1)C(=O)O [Ceftazidime]	R	S	S
O=C(O)c1cn(C2CC2)c2cc(N3CCNCC3)c(F)cc2c1=O [Ciprofloxacin]	S	S	S
CCN1CCN(C(=O)N[C@@H](C(=O)N[C@@H]2C(=O)N3[C@@H]2SC(C)(C)[C@@H]3C(=O)O)c2ccccc2)C(=O)C1=O [Piperacillin]	S	R	S
NC[C@H]1O[C@H](O[C@H]2[C@H](O)[C@@H](O[C@H]3O[C@H](CO)[C@@H](O)[C@H](N)[C@H]3O)[C@H](N)C[C@@H]2N)[C@H](N)C[C@@H]1O [Tobramycin]	S	R	S
Gentamicin	S	R	S
